# Measurements reported in patent US20120204273A1, “COMPOSITIONS RELATING TO A PHOSPHOPROTEIN AND METHODS OF USE” (SANFORD-BURNHAM MEDICAL RESEARCH INSTITUTE, priority 2010, published 2012).
# System: 3T3-L1 adipocytes
# Experiment: myc-GLUT4-GFP translocation to the cell surface
# Assay type: cell-based, mouse
# Details: insulin 1 nM, 20 min
# Description: FIG. 2, panels A-C show knockdown of CDP138 in 3T3-L1 adipocytes inhibits insulin-stimulated glucose transport (A) and myc-GLUT4-GFP translocation (B), but not endogenous GLUT4 movement to the periphery detected in TIRF zone (C). (A): Differentiated adipocytes at day 5 were transfected with siRNAs against mouse 5730419I09Rik or the scrambled siRNA (Scr) as described earlier (Jiang et al., 2003) for 60 hrs, then serum starved overnight. Cells were then treated with or without insulin (1 nM and 100 nM) for 30 min for the glucose uptake assay, or 15 min for immunoblotting of CDP138, pAkt, Akt and β-actin. Glucose transport data are presented as mean±SD of 4 independent experiments. *P<0.05 vs Scr Insulin (1 nM) group; **P<0.01 vs Scr Insulin (100 nM) group. (B): Day 5 adipocytes were transfected with siRNAs and myc-GLUT4-GFP for 60 hrs and then serum starved overnight. Cells were then treated with insulin (1 nM) for 20 min. Cell surface Myc-GLUT4-GFP was detected with anti-myc monoclonal Ab (9E10) and Alexa Fluor 568-labeled goat anti-mouse IgG in non-permeablized cells. The Myc signal and GFP signal were quantified as previously described (Jiang et al., 2002). Data presented are representative microscopic images and mean±SD of about 160 GFP-positive cells in each group from three independent experiments. **P<0.01 vs Scr Insulin (1 nM) group. […] GLUT4 was detected with a goat anti-GLUT4 Ab and Alexa Fluor 488-conjugated donkey anti-goat Ab in permeabilized cells. Top and middle panels show 100 nm TIRF zone and representative GLUT4 TIRFM images, respectively. Data are mean±SD of 3 independent experiments. **P<0.01 vs Scr Insulin groups.
# GLUT4 translocation detection with wide field fluorescence and TIRF microscopy: Both wide field and TIRF microscopy were used to detect myc-GLUT4-GFP translocation to the cell surface as previously described (Jiang et al., 2002) and herein.
# To test the effect of RNAi-induced gene specific knockdown of CDP138 or overexpression of CDP138 mutants on GLUT4 translocation, siRNAs or CDP138 constructs were transfected into adipocytes together with myc-GLUT4-GFP by electroporation as previously described (Jiang et al, 2003). […] Cells were washed with cold PBS, fixed with 4% formaldehyde and immunostained. Briefly, for siRNA study, the cell surface Myc-GLUT4-GFP was visualized with mouse anti-Myc Ab (9E10) and AlexaFluoro568-labeled goat anti-mouse secondary Ab (Invitrogen) in PBS containing 1% FBS. After washing, the coverslip were mounted with Prolong antifade reagent (Invitrogen, Eugene Oreg.). Fluorescence microscopy was carried as described below. Then, images were acquired with wide field microscopy as described below. For the study with overexpressed HAtagged CDP138 constructs, the cell surface Myc-GLUT4-GFP was visualized with rabbit anti-Myc Ab (Cell signaling, Inc) and AlexaFluoro568-labeled goat anti-rabbit secondary Ab (InVitrogen) in PBS containing 1% FBS. Cells were further permeabilized with PSB containing 0.5% Tween-20, and HA-tagged protein was detected with a mouse anti-HA epitope primary Ab followed by AlexaFluoro-350-labelled goat anti-mouse IgG. Insulin-induced myc-GLUT4 accumulation (AlexaFluoro-568 signal) within the evanescence excitation field (100 nm from dorsal membrane) in transfected adipocytes was measured with a Nikon Eclipse-Ti microscope equipped with a CoolSNAP HQ2 camera and laser scanning TIRF capacity. Total GLUT4-GFP signals and […] Alexa Fluoro-350 signals were acquired with wide field imaging to identify double-transfected cells. The ratio of myc-GLUT4 signal in the TIRF zone to the total Epi-GFP signal in wide field was used as a measure of GLUT4 translocation to the cell surface.
# Image Analysis and Quantification: TIRF and wide field fluorescence microscopy were performed using a Nikon inverted microscope (Melville, N.Y.) with a cooled charge-coupled device camera. […]
substance,measurement,value
insulin,increase in GLUT4 translocation (cell surface myc / total GFP),3 fold
